A short description of data set [1]: Bioavailability (BA) test. Format: in vivo. Particulars: plasma; Mice or SD rats; oral 0.3 to 30 mg/kg vs intravenous 0.5 to 10 mg/kg; from AUCs. The protocol:
Materials and Methods for Experiment of BA
• (1) Animals: Mice or SD rats were used • (2) Breeding conditions: Mice or SD rats were allowed to freely take solid food and sterilized tap water. • (3) Dose and grouping: orally or intravenously administered at a predetermined dose; grouping was as follows (Dose depends on the compound) Oral administration: 0.3 to 30 mg/kg (n=2 to 3) Intravenous administration: 0.5 to 10 mg/kg (n=2 to 3) • (4) Preparation of dosing solution: for oral administration, in a solution or a suspension state; for intravenous administration, in a solubilized state • (5) Administration method: in oral administration, forcedly administer into ventriculus with oral probe; in intravenous administration, administer from caudal vein with a needle-equipped syringe • (6) Evaluation items: blood was collected over time, and the plasma concentration of drug was measured by LC/MS/MS • (7) Statistical analysis: regarding the transition of the plasma concentration of the present compound, the area under the plasma concentration-time curve (AUC) was calculated by non-linear least squares program WinNonlin (Registered trade name), and the bioavailability (BA) was calculated from the AUCs of the oral administration group and intravenous administration group

Data set [2] addresses human P2X3 receptor (Homo sapiens (Human), UniProt P56373). Put plainly: Evaluation of human P2X3 receptor inhibitory activity (ATP-induced Fluo-3 fluorescence, FDSS 3000). The conditions noted are these: C6BU-1 cell transfected with human P2X3 receptor gene. Format: cell-based. The method, boiled down:
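Human P2X3 inhibition read as ATP-evoked Fluo-3 calcium fluorescence; compound preincubated, then 50 nM ATP solution (concentration as dispensed) added and fluorescence followed 3 min. Response taken as peak-to-baseline fluorescence ratio per well; IC50 derived from concentration–response.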

Data set [3] can be described thus: Metabolism stability test (pooled human hepatic microsomes). Format: in vitro ADME. Particulars: human liver microsomes 0.5 mg protein/mL; 37° C., 30 minutes; 1 mmol/L NADPH; compound concentration 0.5 μmol/L. How it is done:
Using commercially available pooled human hepatic microsomes, a test compound was reacted for a constant time, a remaining rate was calculated by comparing a reacted sample and an unreacted sample, thereby, a degree of metabolism in liver was assessed.
A reaction was performed (oxidative reaction) at 37° C. for 0 minute or 30 minutes in the presence of 1 mmol/L NADPH in 0.2 mL of a buffer (50 mmol/L tris-HCl pH 7.4, 150 mmol/L potassium chloride, 10 mmol/L magnesium chloride) containing 0.5 mg protein/mL of human liver microsomes. After the reaction, 50 μL of the reaction solution was added to 100 μL of a methanol/acetonitrile 1/1 (v/v), mixed and centrifuged at 3000 rpm for 15 minutes. The test compound in the supernatant was quantified by LC/MS/MS, and a remaining amount of the test compound after the reaction was calculated, letting a compound amount at 0 minute reaction time to be 100%.
(In general: Microsomes from liver hold many membrane-bound enzymes, among them those of drug oxidation.)

Data set [4] has as its target CYP2D6 (Homo sapiens (Human), UniProt P10635). Kind of data set: CYP inhibition test, dextromethorphan O-demethylation. Format: in vitro ADME. Particulars: pooled human hepatic microsome; 5 μmol/L dextromethorphan; given as 'five kinds'. How it is done: (§1) Using commercially available pooled human hepatic microsome, and employing, as markers, 7-ethoxyresorufin O-deethylation (CYP1A2), tolbutamide methyl-hydroxylation (CYP2C9), mephenyloin 4′-hydroxylation (CYP2C19), dextromethorphan O-demethylation (CYP2D6), and terfenedine hydroxylation as typical substrate metabolism reactions of human main five ([…] enzyme forms (CYP1A2, 2C9, 2C19, 2D6, 3A4), an inhibitory degree of each metabolite production amount by a test compound was assessed.
(§2) The reaction conditions were as follows: substrate, 0.5 μmol/L ethoxyresorufin (CYP1A2), 100 μmol/L tolbutamide (CYP2C9), 50 μmol/L S-mephenitoin (CYP2C19), 5 μmol/L dextromethorphan (CYP2D6), 1 μmol/L terfenedine (CYP3A4); reaction time, 15 minutes; reaction temperature, 37° C.; enzyme, pooled human hepatic microsome 0.2 mg protein/mL; test drug concentration, 1.0. 5.0, 10, 20 μmol/L (four points).
(§3) Each five kinds of substrates, human hepatic microsome, or a test drug in 50 mmol/L Hepes buffer as a reaction solution was added to a 96-well plate at the composition as described above. NADPH, as a cofactor was added to initiate metabolism reactions as markers and, after the incubation at 37° C. for 15 minutes, a methanol/acetonitrile=1/1 (v/v) solution was added to stop the reaction. After the centrifugation at 3000 rpm for 15 minutes, resorufin (CYP1A2 metabolite) in the supernatant was quantified by a fluorescent multilabel counter and tributamide hydroxide (CYP2CP metabolite), mephenyloin 4′ hydroxide (CYP2C19 metabolite), […], and terfenadine alcohol (CYP3A4 metabolite) were quantified by LC/MS/MS.
(§4) Addition of only DMSO being a solvent dissolving a drug to a reaction system was adopted as a control (100%), remaining activity (%) was calculated at each concentration of a test drug added as the solution and IC50 was calculated by reverse presumption by a logistic model using a concentration and an inhibition rate.

In data set [5] the target is CYP2C9 (Homo sapiens (Human), UniProt P11712). Put plainly: CYP inhibition test, tolbutamide methyl-hydroxylation. In kind it is in vitro ADME. The conditions noted are these: pooled human hepatic microsome; 100 μmol/L tolbutamide; given as 'five kinds'. The protocol:
as §1, §2, §3, §4

In data set [6] the target is T1, CYP3A4 (Homo sapiens (Human), UniProt P08684). Kind of data set: CYP inhibition test, terfenedine hydroxylation. Format: in vitro ADME. The conditions noted are these: pooled human hepatic microsome; 1 μmol/L terfenedine; given as 'five kinds'. How it is done: as §1, §2, §3, §4
For data set [7], the target named is CYP1A2 (Homo sapiens (Human), UniProt P05177). Put plainly: CYP inhibition test, 7-ethoxyresorufin O-deethylation. In kind it is in vitro ADME. Particulars: pooled human hepatic microsome; 0.5 μmol/L ethoxyresorufin; given as 'five kinds'. How it is done: as §1, §2, §3, §4
Data set [8] deals with CYP2C19 (Homo sapiens (Human), UniProt P33261). Put plainly: CYP inhibition test, mephenyloin 4'-hydroxylation. In kind it is in vitro ADME. The conditions noted are these: pooled human hepatic microsome; 50 μmol/L S-mephenitoin; given as 'five kinds'. How it is done: as §1, §2, §3, §4
Data set [9] can be described thus: Solubility test. Format: physicochemical. The conditions noted are these: artificial intestinal juice (phosphate buffer) with 1% DMSO, 25 °C, other biorelevant, kinetic from dmso stock, artificial intestinal juice in pH 8.8, 25 degrees Celsius for 16 hours. The protocol:
The solubility of a compound was determined under a condition in which 1% DMSO was added. 10 mmol/L compound solution was prepared using DMSO, and then 6 μL of the compound solution was added to 594 μL of artificial intestinal juice in […] (to 250 mL of 0.2 mol/L potassium dihydrogen phosphate reagent solution was added 118 mL of 0.2 mol/L NaOH reagent solution and water to provide a final volume of 1000 mL). After standing at 25 degrees Celsius for 16 hours, the mixed solution was filtrated with suction. The filtrate was diluted twice with methanol/water (1/1) and then a concentration in the filtration was measured with HPLC or LC/MS/MS by the absolute calibration method.

In data set [10] the target is T1, CYP3A4. Kind of data set: CYP3A4 fluorescent MBI test. Particulars: pre-reaction time 0 or 30 minutes; substrate 7-BFC; CYP3A4 expressed in Escherichia coli. Format: in vitro ADME. The protocol:
The CYP3A4 fluorescent MBI test is a test of investigating enhancement of CYP3A4 inhibition of a compound by a metabolism reaction, and the test is performed using, as CYP3A4 enzyme expressed in Escherichia coli and employing, as an index, a reaction in which 7-benzyloxytrifluoromethylchmarin (BFC) is debenzylated by the CYP3A4 enzyme to produce a metabolite, 7-hydroxytrifluoromethylchmarin (HFC) emitting fluorescent light.
The reaction conditions were as follows: substrate, 5.6 μmol/L 7-BFC; pre-reaction time, 0 or 30 minutes; reaction time, 15 minutes; reaction temperature, 25° C.
An enzyme in a K-Pi buffer (pH 7.4) and a test drug solution as a pre-reaction solution were added to a 96-well plate at the composition of the pre-reaction, a part of it was transferred to another 96-well plate so that it was 1/10 diluted by a substrate in a K-Pi buffer, NADPH as a co-factor was added to initiate a reaction as an index (without preincubation) and, after a predetermined time of a reaction, acetonitrile: 0.5 mol/L Tris (trishydroxyaminomethane)=4:1 was added to stop the reaction. In addition, NADPH was added to a remaining preincubation solution to initiate a preincubation (with preincubation) and, after a predetermined time of a preincubation, a part was transferred to another plate so that it was 1/10 diluted with a substrate and a K-Pi buffer to initiate a reaction as an index, After a predetermined time of a reaction, acetonitrile: 0.5 mol/L Tris (trishydroxyaminomethane)=4:1 was added to stop the reaction. For the plate on which each index reaction had been performed, a fluorescent value of 7-HFC which is a metabolite was measured with a fluorescent plate reader. (Ex=420 nm, Em=535 nm).
Addition of only DMSO which is a solvent dissolving a drug to a reaction system was adopted as a control (100%), remaining activity (%) was calculated at each concentration of a test drug added as the solution, and IC50 was calculated by reverse-presumption by a logistic model using a concentration and an inhibition rate. When a difference between IC50 values is 5 or more, this was defined as (+) and, when the difference is 3 μmol/L or less, this was defined as (−).

Chain of CYP2C19 (P33261 whole entry): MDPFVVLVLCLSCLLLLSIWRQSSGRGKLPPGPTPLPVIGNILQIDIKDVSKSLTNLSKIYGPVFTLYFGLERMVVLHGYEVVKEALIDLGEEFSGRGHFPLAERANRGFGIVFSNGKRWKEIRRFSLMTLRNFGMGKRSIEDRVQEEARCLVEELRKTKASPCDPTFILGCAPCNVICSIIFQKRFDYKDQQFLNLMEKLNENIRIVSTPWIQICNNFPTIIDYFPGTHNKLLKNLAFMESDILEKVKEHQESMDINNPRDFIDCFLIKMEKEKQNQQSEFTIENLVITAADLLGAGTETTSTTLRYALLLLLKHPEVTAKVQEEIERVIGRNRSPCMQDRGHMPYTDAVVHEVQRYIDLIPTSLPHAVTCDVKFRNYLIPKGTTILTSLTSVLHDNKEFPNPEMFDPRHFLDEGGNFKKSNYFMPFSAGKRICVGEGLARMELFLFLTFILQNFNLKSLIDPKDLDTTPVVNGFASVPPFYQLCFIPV
T1 sequence (P08684 whole entry): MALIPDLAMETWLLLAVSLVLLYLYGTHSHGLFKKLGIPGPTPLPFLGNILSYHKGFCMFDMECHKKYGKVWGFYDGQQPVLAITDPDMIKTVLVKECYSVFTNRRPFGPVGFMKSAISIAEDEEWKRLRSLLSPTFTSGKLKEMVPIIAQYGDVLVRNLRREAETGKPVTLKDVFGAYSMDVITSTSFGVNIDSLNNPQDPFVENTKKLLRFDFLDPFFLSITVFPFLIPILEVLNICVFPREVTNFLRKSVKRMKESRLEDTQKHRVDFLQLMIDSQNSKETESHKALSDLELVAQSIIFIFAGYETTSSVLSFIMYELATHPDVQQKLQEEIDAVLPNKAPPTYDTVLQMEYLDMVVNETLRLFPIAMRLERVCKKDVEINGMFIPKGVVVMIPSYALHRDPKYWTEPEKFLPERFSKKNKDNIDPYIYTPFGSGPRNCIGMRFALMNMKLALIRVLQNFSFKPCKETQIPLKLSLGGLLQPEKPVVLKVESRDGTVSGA
Chain of CYP2D6 (P10635 whole entry): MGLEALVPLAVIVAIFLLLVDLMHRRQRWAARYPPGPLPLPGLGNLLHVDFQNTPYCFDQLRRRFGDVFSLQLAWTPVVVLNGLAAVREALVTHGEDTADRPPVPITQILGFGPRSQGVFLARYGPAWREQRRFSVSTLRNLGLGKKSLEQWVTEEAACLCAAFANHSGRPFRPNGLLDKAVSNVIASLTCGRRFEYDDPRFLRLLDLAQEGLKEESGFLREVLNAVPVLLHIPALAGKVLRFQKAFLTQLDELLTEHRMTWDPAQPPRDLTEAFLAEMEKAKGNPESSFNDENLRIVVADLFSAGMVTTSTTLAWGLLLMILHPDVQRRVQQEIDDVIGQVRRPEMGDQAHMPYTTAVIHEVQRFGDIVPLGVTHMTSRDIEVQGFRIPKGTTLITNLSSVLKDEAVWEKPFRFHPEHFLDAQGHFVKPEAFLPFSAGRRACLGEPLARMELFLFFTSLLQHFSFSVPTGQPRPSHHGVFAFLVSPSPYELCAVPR
Chain of CYP1A2 (P05177 whole entry): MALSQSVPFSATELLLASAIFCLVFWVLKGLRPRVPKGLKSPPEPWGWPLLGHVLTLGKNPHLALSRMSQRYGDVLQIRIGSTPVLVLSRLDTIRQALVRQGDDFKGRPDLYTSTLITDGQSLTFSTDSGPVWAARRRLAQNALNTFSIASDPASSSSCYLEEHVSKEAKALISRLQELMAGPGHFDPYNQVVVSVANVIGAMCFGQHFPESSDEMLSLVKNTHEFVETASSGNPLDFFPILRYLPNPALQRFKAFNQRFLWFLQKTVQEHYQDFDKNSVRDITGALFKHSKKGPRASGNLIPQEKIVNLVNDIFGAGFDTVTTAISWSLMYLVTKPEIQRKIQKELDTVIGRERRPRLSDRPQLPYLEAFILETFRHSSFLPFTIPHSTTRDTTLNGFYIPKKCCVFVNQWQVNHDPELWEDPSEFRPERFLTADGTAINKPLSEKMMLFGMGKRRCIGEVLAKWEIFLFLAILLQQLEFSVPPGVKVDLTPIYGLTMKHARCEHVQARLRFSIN
Chain of human P2X3 receptor (P56373 whole entry): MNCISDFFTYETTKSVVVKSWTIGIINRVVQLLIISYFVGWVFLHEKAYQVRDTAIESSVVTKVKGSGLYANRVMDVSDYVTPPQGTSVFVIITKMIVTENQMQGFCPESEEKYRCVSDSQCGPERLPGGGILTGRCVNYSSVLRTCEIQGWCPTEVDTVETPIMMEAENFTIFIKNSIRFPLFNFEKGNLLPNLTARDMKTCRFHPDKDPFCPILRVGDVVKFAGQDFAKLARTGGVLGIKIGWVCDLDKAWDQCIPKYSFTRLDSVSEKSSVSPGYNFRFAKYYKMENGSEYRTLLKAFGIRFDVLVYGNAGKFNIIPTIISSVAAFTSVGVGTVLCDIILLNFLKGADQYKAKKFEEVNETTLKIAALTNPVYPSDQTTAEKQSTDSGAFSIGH
Chain of CYP2C9 (P11712 whole entry): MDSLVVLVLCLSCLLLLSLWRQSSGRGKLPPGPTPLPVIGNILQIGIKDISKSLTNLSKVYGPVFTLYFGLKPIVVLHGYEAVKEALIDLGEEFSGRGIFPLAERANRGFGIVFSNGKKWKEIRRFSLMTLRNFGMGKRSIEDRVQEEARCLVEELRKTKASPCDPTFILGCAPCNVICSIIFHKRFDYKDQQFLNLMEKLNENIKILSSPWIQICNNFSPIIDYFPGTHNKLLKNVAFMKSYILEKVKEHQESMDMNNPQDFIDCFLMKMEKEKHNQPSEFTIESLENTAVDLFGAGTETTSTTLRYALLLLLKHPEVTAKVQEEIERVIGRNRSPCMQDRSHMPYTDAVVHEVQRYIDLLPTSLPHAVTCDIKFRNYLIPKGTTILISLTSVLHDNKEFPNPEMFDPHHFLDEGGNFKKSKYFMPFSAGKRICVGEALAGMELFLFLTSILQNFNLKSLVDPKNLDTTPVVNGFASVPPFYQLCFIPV

`CC(C)Oc1ccc(Nc2cc(=O)n(CC(C)(C)C(=O)O)c(=O)n2Cc2ccc(Cl)cc2)cc1F` [I-021]: the bioavailability in data set [1] turned out to be 49.1%. In addition, in data set [2], the midpoint of inhibition, the IC50, lay at 19 nM.

Consider `CCOC(=O)c1cn(Cc2ccc(Cl)cc2)c(Nc2ccc(OC(C)C)c(F)c2)nc1=O` [I-131, 1-(4-chlorobenzyl)-2-(3-fluoro-4-isopropoxyphenylamino)-5-(ethoxycarbonyl)pyrimidine-4(1H)-one], for which the remaining rate in data set [3] is on record as 92%.

In data set [1], `Cc1cc(Nc2cc(=O)n(C[C@H](C)C(=O)O)c(=O)n2Cc2ccc(Cl)cc2)ccc1OC(C)C` [I-215] returned a bioavailability of 49.7%. This compound also returned an IC50 in data set [2] of 24 nM.

With `CC(C)Oc1ccc(Nc2nc(=O)c(C(=O)NC3CCOCC3)cn2Cc2ccc(Cl)cc2)cc1F` [I-241], the IC50 is > 20000 nM in [4]; > 20000 nM in data set [5]; > 20000 nM in data set [6]; > 20000 nM in data set [7]; > 20000 nM in data set [8]; 31 nM in [2]. The remaining rate in [3] was found to be 88%.

In [1], `Cc1nc2ccc(Nc3nc(=O)c(C(=O)NC4CCOCC4)cn3Cc3ccc(Cl)cc3)cc2s1` [I-286] came in with a bioavailability of 41.7%. The same compound showed an IC50 in [2] of 8 nM.

For `CC(C)Oc1ccc(Nc2ncc(NC(=O)NC3CCOCC3)c(=O)n2Cc2ccc(Cl)cc2)cc1F` [I-289], the remaining rate in [3] is given as 89%. In data set [2], the 50% inhibitory concentration (IC50) was determined as 7 nM.

Turning to `O=C(O)c1cncc(Oc2ccc(Nc3ncc(NC(=O)C4CCOCC4)c(=O)n3Cc3ccc(Cl)cc3)cc2)c1` [I-305], the 50% inhibitory concentration (IC50) in data set [4] is > 20000 nM; in data set [5] it was > 20000 nM; in data set [6], > 20000 nM; in data set [7] it was > 20000 nM; in data set [8] it was > 20000 nM; in data set [2] it was 4 nM. Further, the solubility at 16 h in [9] is > 50 µM. In data set [10], the IC50 difference was < 3000 nM.

`Cc1ncc(Oc2ccc(Nc3ncc(NC(=O)C4CCOCC4)c(=O)n3Cc3ccc(Cl)cc3)cc2)cc1F` [I-313] showed a bioavailability in [1] of 28.5%. The IC50 in [2] is 3 nM.

On to `CCn1c(=O)cc(Nc2ccc(Oc3cncc(C(=O)O)c3)cc2)n(Cc2ccc(Cl)cc2)c1=O` [I-315], for which, in [10], the IC50 difference was < 3000 nM. For the same compound, the remaining rate in data set [3] amounted to 105%. In data set [2], this compound registered an IC50 of 6 nM.

On to `Cc1nc2ccc(Nc3cc(=O)n(CCCC(=O)O)c(=O)n3Cc3ccc(Cl)cc3)cc2s1` [I-354], for which the IC50 in data set [4] is > 20000 nM; in data set [5] it was > 20000 nM; in data set [6] it was > 20000 nM; in data set [7], > 20000 nM; in data set [8], > 20000 nM; in data set [2], 94 nM. Also, the IC50 difference in [10] is < 3000 nM.

For the compound `O=C(O)c1cccc(Oc2ccc(Nc3ncc(NC(=O)C4CCOCC4)c(=O)n3Cc3ccc(Cl)cc3)cc2)c1` [I-359], the IC50 difference in [10] was < 3000 nM. Further, the remaining rate in data set [3] is listed as 101%. In data set [2], this compound came in with an IC50 of 2 nM.

Broadly, the bioavailability is dose-corrected exposure relative to a reference, in per cent. A high value points to much systemic uptake. As usually defined, the IC50 is the concentration at which inhibition is half-maximal. Low readings indicate greater potency, high ones weaker potency. The solubility is the dissolved amount per volume that the medium holds. Read a low solubility as little dissolved substance.

For the origin of these results see patent publication US9212130B2, “Heterocyclic derivative and pharmaceutical composition comprising the same” (SHIONOGI & CO., LTD., priority 2010, dated 2015).
